Structures can show the parent of a compound that is named as a salt. No end group written: not given here.
Columns and labels:
ALS patients = conditions: background statement, cited from earlier work
ALS model mice = conditions: background statement; cited from earlier work
NSC34-SOD1-G93A cell = format: cell-based, mice
Description: The action of the said NHK1 peptide upon the complex VDAC1/SOD1-G93A, i.e. the complex formed by the interaction between protein VDAC1 and the mutant enzyme SOD1 (exactly the mutant G93A, where the glycine 93 was replaced by alanine) was evaluated by in vitro and in cellulo experiments, i.e. in the NSC34 cell line. NSC34 is a hybrid cell line obtained by fusing mice motor neurons with neuroblastoma cells. The NSC34 cell line is widely recognized as cell model of motor neurons and, following its transfection with mutated SOD1, it is considered a reference model of ALS [Cashman N R et al. Neuroblastoma×spinal cord (NSC) hybrid cell lines resemble developing motor neurons. Dev. Dyn. […]
The MTT assay is a colorimetric assay aimed to quantify the activity of dehydrogenase enzymes reducing 3-(4,5-dimethyltiazol-2-yl)-2,5-diphenyltetrazolium, yellow, to purple-blue formazan [Mosmann T., Rapid colorimetric assay for cellular growth and survival: application to proliferation and cytotoxicity assays. […]
Cells were seeded on 24-wells plates at a density of 80,000 cells/well, incubated for 24 hours and then transiently transfected with plasmid pEGFP-N1 expressing SOD1WT or SOD1-G93A or a mock. […] The MTT assay was read after 24 hours incubation. […]
The same vitality assay was repeated in the presence of the NHK1 peptide. […] The MTT assay was read after 24 hours incubation. […]

Molecule | Efficacy in ALS (ALS patients) | also measured
CCCN[C@@H]1CCc2nc(N)sc2C1 [Dexpramipexole] | lacks any efficacy in ALS patients | 
O=S(=O)(c1cccc2cnccc12)N1CCCNCC1 [Fasudil hydrochloride] | inefficacy in ALS | 
CCCCCCCCc1ccc(CCC(N)(CO)CO)cc1 [Fingolimid] | does not show any activity in ALS | 
O=C([O-])[O-].[Li+].[Li+] [Lithium carbonate] | no influence on disease progression and survival | 
Cc1ccc(NC(=O)c2ccc(CN3CCN(C)CC3)cc2)cc1Nc1nc(-c2cccnc2)cs1 [Masitinib] | inefficacy in ALS | 
Nc1nc2ccc(OC(F)(F)F)cc2s1 [Riluzole] |  | Extension of life expectation (ALS patients; ALS, statistical analysis): about three months
C#Cc1cnc2nc(O)n(C(CC)CC)c2n1 [Tirasemvit] |  | Improvement of skeletal muscle strength (ALS model mice): did not confirm such ability
IAAQLLAYYFT [NHK1, Isoleucine-Alanine-Alanine-Glutamine-Leucine-Leucine-Alanine-Tyrosine-Tyrosine-Phenylalanine-Threonine] |  | Toxicity for the cell (NSC34-SOD1-G93A cell): not toxic at all

Reference: patent publication US10800811B2, “Pharmacologically active peptide compound, process for the preparation and use thereof” (Dipartimento di Scienze Biomediche e Biotecnologiche, priority 2016, dated 2020)
